Values after ≈ are worked out from the molar mass of the structure shown. Where two headings read alike, the source gives them in different places.
What was measured:
[1] = tested on: M. intracellulare; settings: 31 strains, agar dilution; cited from earlier work
[2] = tested on: M. tuberculosis; settings: cited from earlier work
[3] = clinical; settings: human, in vivo
From the text: Attempts were made to analyze the multiple-dose pharmacokinetics using a linear 3-compartment model, and a 3-compartment model incorporating enzyme induction. However, neither multi-compartmental model accurately characterized the pharmacokinetic parameters in all subjects. Daily dosing and related early terminations due to adverse reactions, differences in bioavailability from a food effect, and nonconnective dose administration further complicated these analyses. Therefore, only noncompartmental pharmacokinetic parameters were derived for clinical trials 003 and 004. For the 004 clinical trial, the pharmacokinetic analysis of this multiple-dose study was limited to a comparison of the noncompartmental parameters obtained from the first dose (Day 1) data versus the fourth (last) dose (Day 22). Because of extensive sampling after the fourth dose, this study yielded the most complete data about terminal elimination of rifalazil given in a multiple-dose regimen.

[4] = Clinical trial 005, rifalazil concentration in plasma of tuberculosis patients; format: in vivo, human; settings: for maximum concentration of the drug in plasma: six hours; for concentration at 3 h / concentration at 11 day / concentration at 15 day / concentration at 0 h / concentration at 2 h / concentration at 5 h / concentration at 9 h / concentration at 12 h / concentration at 24 h / concentration at 48 h / concentration at 72 h: human, plasma; for concentration at 3 h: three hours; for concentration at 11 day: Day 11; for concentration at 15 day: Day 15; for concentration at 0 h: Hour 0; for concentration at 2 h: Hour 2; for concentration at 5 h: Hour 5; for concentration at 9 h: Hour 9; for concentration at 12 h: Hour 12; for concentration at 24 h: Hour 24; for concentration at 48 h: Hour 48; for concentration at 72 h: Hour 72
Method: Definite diagnosis and evaluation of treatment efficacy requires direct examination of sputum for the presence of M. tuberculosis. The extent of M. tuberculosis infection is determined by number of bacteria able to form colonies and is expressed as colony forming units. When the number of colony forming units (CFU) is high, the infection is unhindered. When the CFU decreases, the number of active M. tuberculosis bacteria decreases. The CFU, typically expressed as Log10, have therefore important diagnostic and treatment evaluative value.
Table 21 summarizes the plasma concentrations data of rifalazil measured in patients that received rifalazil at zero hour. The data are separated into 2 groups and are identified as INH+10 mg rifalazil (Group 3) and INH+25 mg rifalazil (Group 4). The concentration of rifalazil in plasma is presented in ng/mL and are shown as a timecourse (hours and days) wherein values were determined at several times over the two weeks of the study.

[5] = Ref. 1, BACTEC, 30 strains (rif^r and rif^s)
[6] = Ref. 2, BACTEC, 24 strains (rif^r and rif^s)
[7] = Ref. 3, BACTEC, 13 strains (rif^s)
[8] = Ref. 4, BACTEC, 11 strains (rif^r)
[9] = Ref. 5, BACTEC, 20 strains (rif^s)
[10] = thirty clinical isolates, BACTEC
[11] = 10 mg, INH + 10 mg KRM, read-out: Rifalazil Concentration in Plasma, Max
[12] = 10 mg, INH + 10 mg KRM, read-out: Rifalazil Concentration in Plasma, Med
[13] = 10 mg, INH + 10 mg KRM, read-out: Rifalazil Concentration in Plasma, Min
[14] = 25 mg, INH + 25 mg KRM, read-out: Rifalazil Concentration in Plasma, Max
[15] = 25 mg, INH + 25 mg KRM, read-out: Rifalazil Concentration in Plasma, Mean
[16] = 25 mg, INH + 25 mg KRM, read-out: Rifalazil Concentration in Plasma, Med
[17] = 25 mg, INH + 25 mg KRM, read-out: Rifalazil Concentration in Plasma, Min
[18] = INH + 10 mg KRM, read-out: Rifalazil Concentration in Plasma, Mean
[19] = INH + 10 mg KRM, read-out: Rifalazil Concentration in Plasma, Max
[20] = INH + 10 mg KRM, read-out: Rifalazil Concentration in Plasma, Med
[21] = INH + 10 mg KRM, read-out: Rifalazil Concentration in Plasma, Min
[22] = INH + 25 mg KRM, read-out: Rifalazil Concentration in Plasma, Max
[23] = INH + 25 mg KRM, read-out: Rifalazil Concentration in Plasma, Mean
[24] = INH + 25 mg KRM, read-out: Rifalazil Concentration in Plasma, Med
[25] = INH + 25 mg KRM, read-out: Rifalazil Concentration in Plasma, Min

CO[C@H]1/C=C/O[C@@]2(C)Oc3c(C)c(O)c4c(=O)c(c5oc6cc(N7CCN(CC(C)C)CC7)cc(O)c6nc-5c4c3C2=O)NC(=O)/C(C)=C\C=C\[C@H](C)[C@H](O)[C@@H](C)[C@@H](O)[C@@H](C)[C@H](OC(C)=O)[C@@H]1C [Rifalazil, 3′-hydroxy-5′-(4-isobutyl-1-piperazinyl)benzoxasinorifamycin]
MIC90 [1]: 0.1 µg/mL (≈ 0.106 µM) | MIC90 [2, 5]: 2.0 µg/mL (≈ 2.13 µM) | MIC Range [2, 5]: ≦0.002 to 4.0^ μg/mL | MIC90 [2, 6]: 4.0 µg/mL (≈ 4.25 µM) | MIC Range [2, 6]: 0.0009 to 4.0 µg/mL | MIC90 [2, 7]: 0.0156 µg/mL (≈ 0.0166 µM) | MIC Range [2, 7]: 0.0009 to 0.125 µg/mL | MIC90 [2, 8]: 4.0 µg/mL (≈ 4.25 µM) | MIC Range [2, 8]: 0.062 to 4.0 µg/mL | MIC90 [2, 9]: <0.125 µg/mL | MIC Range [2, 9]: <0.125 µg/mL | MIC90 ([2]; Ref. 6, BACTEC, 20 strains (rif^r)): >2.0 µg/mL | MIC ([2]; reference strain H37Rv, BACTEC): 0.004 µg/mL (≈ 0.00425 µM) | MIC ([2]; reference strain Kurono, BACTEC): 0.002 µg/mL (≈ 0.00213 µM) | MIC90 ([2]; rifampin-sensitive Mycobacterium tuberculosis): 0.0156 µg/mL (≈ 0.0166 µM) | MIC50 50% inhibition [2, 10]: 0.016 µg/mL (≈ 0.017 µM) | MIC90 90% inhibition [2, 10]: 2.0 µg/mL (≈ 2.13 µM) | increase of AUC(0-24) on Day 22 relative to Day 1 ([3]; 25 mg): approximately 17% | half-life ([3]; 25 mg, apparent terminal half-life, range): 29.5 to 107 h | increase of AUC(0-24) on Day 22 relative to Day 1 ([3]; 50 mg): ~27% | half-life ([3]; 50 mg, apparent terminal half-life, range): 65.9 to 148 h | half-life ([3]; Half-life distribution t½ (mean)): 10.5 h | half-life ([3]; Half-life elimination t½ (mean)): ~61 h | Tmax ([3]; Tmax (mean)): 5.7 h | maximum concentration of the drug in plasma ([4]; 10 mg rifalazil): 12.68 ng/mL | maximum concentration of the drug in plasma ([4]; 25 mg rifalazil): 28.47 ng/mL | drug in plasma ([4]; 72 hours (3 days)): still measurable amount of drug in plasma | Rifalazil Concentration in Plasma, Max ([4]; INH + 10 mg KRM, Day 4 M-0): 0 ng/mL | Rifalazil Concentration in Plasma, Mean ([4]; INH + 10 mg KRM, Day 4 M-0): 0 ng/mL | Rifalazil Concentration in Plasma, Med ([4]; INH + 10 mg KRM, Day 4 M-0): 0 ng/mL | Rifalazil Concentration in Plasma, Min ([4]; INH + 10 mg KRM, Day 4 M-0): 0 ng/mL | Rifalazil Concentration in Plasma, Max ([4]; INH + 10 mg KRM, Day 8 M-4): 21.9 ng/mL | Rifalazil Concentration in Plasma, Mean ([4]; INH + 10 mg KRM, Day 8 M-4): 18.31 ng/mL | Rifalazil Concentration in Plasma, Min ([4]; INH + 10 mg KRM, Day 8 M-4): 9.7 ng/mL | Rifalazil Concentration in Plasma, Max ([4]; INH + 25 mg KRM, Day 4 M-0): 0 ng/mL | Rifalazil Concentration in Plasma, Mean ([4]; INH + 25 mg KRM, Day 4 M-0): 0 ng/mL | Rifalazil Concentration in Plasma, Med ([4]; INH + 25 mg KRM, Day 4 M-0): 0 ng/mL | Rifalazil Concentration in Plasma, Min ([4]; INH + 25 mg KRM, Day 4 M-0): 0 ng/mL | Rifalazil Concentration in Plasma, Max ([4]; INH + 25 mg KRM, Day 8 M-4): 41.0 ng/mL | Rifalazil Concentration in Plasma, Mean ([4]; INH + 25 mg KRM, Day 8 M-4): 29.02 ng/mL | Rifalazil Concentration in Plasma, Med ([4]; INH + 25 mg KRM, Day 8 M-4): 28.5 ng/mL | Rifalazil Concentration in Plasma, Min ([4]; INH + 25 mg KRM, Day 8 M-4): 11.7 ng/mL | concentration at 3 h ([4]; 10 mg, 10 mg of rifalazil): 9.7 ng/mL | concentration at 11 day [4, 11]: 2.5 ng/mL | concentration at 11 day [4, 12]: 1.4 ng/mL | concentration at 11 day [4, 13]: 2 ng/mL | concentration at 15 day [4, 11]: 0 ng/mL | concentration at 15 day [4, 12]: 3 ng/mL | concentration at 15 day [4, 13]: 0 ng/mL | concentration at 3 h ([4]; 25 mg, 25 mg rifalazil): 15.9 ng/mL | concentration at 11 day [4, 14]: 9.1 ng/mL | concentration at 11 day [4, 15]: 4.12 ng/mL | concentration at 11 day [4, 16]: 3.3 ng/mL | concentration at 11 day [4, 17]: 2.2 ng/mL | concentration at 15 day [4, 14]: 3.4 ng/mL | concentration at 15 day [4, 15]: 0.95 ng/mL | concentration at 15 day [4, 16]: 0 ng/mL | concentration at 15 day [4, 17]: 0 ng/mL | concentration at 11 day [4, 18]: 2.4 ng/mL | concentration at 15 day [4, 18]: 3 ng/mL | concentration at 0 h [4, 19]: 0 ng/mL | concentration at 0 h [4, 18]: 0 ng/mL | concentration at 0 h [4, 20]: 3 ng/mL | concentration at 0 h [4, 21]: 0 ng/mL | concentration at 2 h [4, 19]: 20.3 ng/mL | concentration at 2 h [4, 18]: 9.7 ng/mL | concentration at 2 h [4, 20]: 9 ng/mL | concentration at 2 h [4, 21]: 0 ng/mL | concentration at 5 h [4, 19]: 22.7 ng/mL | concentration at 5 h [4, 18]: 12.5 ng/mL | concentration at 5 h [4, 20]: 11.9 ng/mL | concentration at 5 h [4, 21]: 4.2 ng/mL | concentration at 9 h [4, 19]: 19.2 ng/mL | concentration at 9 h [4, 18]: 9.75 ng/mL | concentration at 9 h [4, 20]: 10.3 ng/mL | concentration at 9 h [4, 21]: 3 ng/mL | concentration at 12 h [4, 19]: 11.9 ng/mL | concentration at 12 h [4, 18]: 10.7 ng/mL | concentration at 12 h [4, 20]: 11.4 ng/mL | concentration at 12 h [4, 21]: 6.2 ng/mL | concentration at 24 h [4, 19]: 5 ng/mL | concentration at 24 h [4, 18]: 3.6 ng/mL | concentration at 24 h [4, 20]: 3.55 ng/mL | concentration at 24 h [4, 21]: 2.3 ng/mL | concentration at 48 h [4, 19]: 2.5 ng/mL | concentration at 48 h [4, 18]: 1.4 ng/mL | concentration at 48 h [4, 20]: 2.5 ng/mL | concentration at 48 h [4, 21]: 2.2 ng/mL | concentration at 72 h [4, 19]: 2.2 ng/mL | concentration at 72 h [4, 20]: 1 ng/mL | concentration at 72 h [4, 21]: 0 ng/mL | concentration at 0 h [4, 22]: 0 ng/mL | concentration at 0 h [4, 23]: 0 ng/mL | concentration at 0 h [4, 24]: 0 ng/mL | concentration at 0 h [4, 25]: 0 ng/mL | concentration at 2 h [4, 22]: 26.4 ng/mL | concentration at 2 h [4, 23]: 15.3 ng/mL | concentration at 2 h [4, 24]: 11.4 ng/mL | concentration at 2 h [4, 25]: 2.3 ng/mL | concentration at 5 h [4, 22]: 42.7 ng/mL | concentration at 5 h [4, 23]: 25.5 ng/mL | concentration at 5 h [4, 24]: 30.9 ng/mL | concentration at 5 h [4, 25]: 5.5 ng/mL | concentration at 9 h [4, 22]: 38.2 ng/mL | concentration at 9 h [4, 23]: 21.6 ng/mL | concentration at 9 h [4, 24]: 22.1 ng/mL | concentration at 9 h [4, 25]: 4.2 ng/mL | concentration at 12 h [4, 22]: 20.5 ng/mL | concentration at 12 h [4, 23]: 16.3 ng/mL | concentration at 12 h [4, 24]: 18.1 ng/mL | concentration at 12 h [4, 25]: 11.1 ng/mL | concentration at 24 h [4, 22]: 12.2 ng/mL | concentration at 24 h [4, 23]: 7.72 ng/mL | concentration at 24 h [4, 24]: 6.7 ng/mL | concentration at 24 h [4, 25]: 4.3 ng/mL | concentration at 48 h [4, 22]: 5.3 ng/mL | concentration at 48 h [4, 23]: 2.15 ng/mL | concentration at 48 h [4, 24]: 3.9 ng/mL | concentration at 48 h [4, 25]: 0 ng/mL | concentration at 72 h [4, 22]: 3.2 ng/mL | concentration at 72 h [4, 23]: 2.15 ng/mL | concentration at 72 h [4, 24]: 2.7 ng/mL | concentration at 72 h [4, 25]: 0 ng/mL
